From ChEMBL document CHEMBL1201862, “PubChem BioAssay data set” (2004)
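Tested at 5 concentrations; 48 h exposure; 96-well plates; endpoints linearly interpolated, else capped at highest concentration. GI50 marks 50% less growth.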 Calls of active or inactive are those of the source. No stated cut-off is given here; in the data, active = GI50 up to about 1.1 µM and inactive = higher.

What was measured:
Assay in all cases: inhibition of tumour cell growth, NCI panel, 48 h
SK-MEL-28 = test system: SK-MEL-28
UACC-257 = test system: UACC-257
OVCAR-3 = test system: OVCAR-3
IGROV-1 = test system: IGROV-1
A498 = test system: A498
HOP-62 = test system: HOP-62
HT-29 = test system: HT-29
SK-MEL-2 = test system: SK-MEL-2
A549 = test system: A549
U-251 = test system: U-251
MOLT-4 = test system: MOLT-4
HCT-116 = test system: HCT-116
SK-OV-3 = test system: SK-OV-3
UO-31 = test system: UO-31
ACHN = test system: ACHN
COLO 205 = test system: COLO 205
OVCAR-4 = test system: OVCAR-4
SNB-75 = test system: SNB-75

Compound	GI50 (SK-MEL-28)	GI50 (UACC-257)	GI50 (OVCAR-3)	GI50 (IGROV-1)	GI50 (A498)	GI50 (HOP-62)	GI50 (HT-29)	GI50 (SK-MEL-2)	GI50 (A549)	GI50 (U-251)	GI50 (MOLT-4)	GI50 (HCT-116)	GI50 (SK-OV-3)	GI50 (UO-31)	GI50 (ACHN)	GI50 (COLO 205)	GI50 (OVCAR-4)	GI50 (SNB-75)
CC(C)(Oc1ccc(C(=O)c2ccc(Cl)cc2)cc1Cl)C(=O)Nc1c(Cl)cccc1Cl	> 100 µM (inactive)	> 100 µM (inactive)	> 100 µM (inactive)	> 100 µM (inactive)	> 100 µM (inactive)	> 100 µM (inactive)	> 100 µM (inactive)	> 100 µM (inactive)	> 100 µM (inactive)	> 100 µM (inactive)	67.9 µM (inactive)	> 100 µM (inactive)	> 100 µM (inactive)	23 µM (inactive)				
Cc1ccc(C)c2c1C1CCCCC3(OCCCO3)C21O (stereo unspecified)	> 100 µM (inactive)	> 100 µM (inactive)	51.4 µM (inactive)	> 100 µM (inactive)	> 100 µM (inactive)	> 100 µM (inactive)	> 100 µM (inactive)	> 100 µM (inactive)	> 100 µM (inactive)	> 100 µM (inactive)	> 100 µM (inactive)	> 100 µM (inactive)	> 100 µM (inactive)	> 100 µM (inactive)	> 100 µM (inactive)	> 100 µM (inactive)	> 100 µM (inactive)	31.7 µM (inactive)
CCCCCC(=O)OC[n+]1ccc2c(C)c3[nH]c4ccccc4c3c(C)c2c1	1.43 µM (inactive)	1.57 µM (inactive)	1.19 µM (inactive)	1.75 µM (inactive)	1.35 µM (inactive)	1.24 µM (inactive)	0.482 µM (active)	3.61 µM (inactive)	0.586 µM (active)	0.656 µM (active)	0.327 µM (active)	0.373 µM (active)	1.92 µM (inactive)	2.65 µM (inactive)	0.738 µM (active)		1.1 µM (active)	1.49 µM (inactive)
CN(C)CCN(C)CCC(=O)/C=C/c1ccccc1	20.1 µM (inactive)	22.2 µM (inactive)	27.7 µM (inactive)	> 47.9 µM (inactive)	> 89.9 µM (inactive)	> 100 µM (inactive)	20.8 µM (inactive)	39.2 µM (inactive)	> 71.6 µM (inactive)	57.7 µM (inactive)	7.26 µM (inactive)	17.1 µM (inactive)	> 100 µM (inactive)	> 64.7 µM (inactive)	29.5 µM (inactive)	18.7 µM (inactive)	38.2 µM (inactive)	> 41.5 µM (inactive)
CN(C)C(=O)Oc1c(-c2ccccc2)c(=O)n2c3ccccc3n3c(=O)n(C)c(=O)c1c23	> 100 µM (inactive)	> 100 µM (inactive)	> 100 µM (inactive)	> 100 µM (inactive)	> 100 µM (inactive)	> 100 µM (inactive)	> 100 µM (inactive)	> 100 µM (inactive)	> 100 µM (inactive)	> 100 µM (inactive)	> 100 µM (inactive)	> 100 µM (inactive)	> 100 µM (inactive)	> 100 µM (inactive)	> 100 µM (inactive)	> 100 µM (inactive)	> 100 µM (inactive)	72.3 µM (inactive)
Cc1cc(N(CCC#N)CCC#N)ccc1CC1N=C(c2ccccc2)OC1=O (stereo unspecified)	> 100 µM (inactive)	> 100 µM (inactive)	> 100 µM (inactive)	> 100 µM (inactive)	> 100 µM (inactive)	> 100 µM (inactive)	> 100 µM (inactive)	> 100 µM (inactive)	> 100 µM (inactive)	> 100 µM (inactive)	> 100 µM (inactive)	> 100 µM (inactive)	> 100 µM (inactive)	> 100 µM (inactive)	> 100 µM (inactive)	> 100 µM (inactive)	> 100 µM (inactive)	> 100 µM (inactive)
Cc1c(C(=O)CC(=O)C(=O)Nc2cccc(C(F)(F)F)c2)[n+]([O-])c2ccccc2[n+]1[O-]	7.35 µM (inactive)	2.56 µM (inactive)	1.66 µM (inactive)	2.74 µM (inactive)	20.7 µM (inactive)	23.6 µM (inactive)	3.79 µM (inactive)	4.28 µM (inactive)	14.4 µM (inactive)	4.03 µM (inactive)	2.71 µM (inactive)	3.06 µM (inactive)	18.2 µM (inactive)	16.3 µM (inactive)	3.15 µM (inactive)	3.33 µM (inactive)	2.42 µM (inactive)	3.04 µM (inactive)
Cn1c2c(c3ccccc31)C1CCCCCCC1C1C(=O)OC(=O)C21 (stereo unspecified)	54.1 µM (inactive)		19.5 µM (inactive)	27.4 µM (inactive)	72.1 µM (inactive)		30.1 µM (inactive)		36.9 µM (inactive)	37.9 µM (inactive)	24.8 µM (inactive)		32.7 µM (inactive)	> 100 µM (inactive)	56 µM (inactive)	40.6 µM (inactive)	53.8 µM (inactive)	30.3 µM (inactive)
CC(=O)OC(C)(C)[C@@H]1CC[C@]2(C)/C=C/[C@H](C)C[C@@H](O)C3=C(C)C[C@@H](O3)C12 (stereo partly specified)	> 100 µM (inactive)	> 100 µM (inactive)	> 100 µM (inactive)	> 100 µM (inactive)	> 100 µM (inactive)	> 100 µM (inactive)	> 100 µM (inactive)	> 100 µM (inactive)	> 100 µM (inactive)	> 100 µM (inactive)	> 100 µM (inactive)	> 100 µM (inactive)	> 100 µM (inactive)	> 100 µM (inactive)	> 100 µM (inactive)	> 100 µM (inactive)	> 100 µM (inactive)	> 100 µM (inactive)
COc1ccc(CNc2cnc3ccc(N)cc3n2)cc1OC	67 µM (inactive)	> 100 µM (inactive)	> 100 µM (inactive)			> 10 µM (inactive)	> 100 µM (inactive)	> 100 µM (inactive)	> 100 µM (inactive)		> 100 µM (inactive)	53.8 µM (inactive)		79.6 µM (inactive)	> 100 µM (inactive)	60 µM (inactive)	> 100 µM (inactive)	66.7 µM (inactive)
CN(CCS(=O)(=O)N1C(=O)C2CCCN2C(=O)[C@@H]1Cc1ccccc1)C(=O)OCc1ccccc1 (stereo partly specified)	93.5 µM (inactive)	69 µM (inactive)	32.6 µM (inactive)	> 100 µM (inactive)	35.5 µM (inactive)	> 100 µM (inactive)	47.4 µM (inactive)		48 µM (inactive)	56.2 µM (inactive)	16.5 µM (inactive)	39.9 µM (inactive)	> 100 µM (inactive)	31.8 µM (inactive)	28.3 µM (inactive)	58.5 µM (inactive)	68.4 µM (inactive)	33.4 µM (inactive)
C=CCC(N(C)C(=O)[C@H](Cc1ccccc1)NC(=O)OCc1ccccc1)P(=O)(Oc1ccccc1)Oc1ccccc1 (stereo partly specified)	> 100 µM (inactive)	> 100 µM (inactive)	> 100 µM (inactive)	> 100 µM (inactive)		> 100 µM (inactive)	> 100 µM (inactive)	> 100 µM (inactive)	5.81 µM (inactive)	> 100 µM (inactive)	2.77 µM (inactive)	5.9 µM (inactive)	> 100 µM (inactive)	5.5 µM (inactive)	6.5 µM (inactive)	8.43 µM (inactive)		80.5 µM (inactive)
N#CCCN(C1=NN(C(=O)CC(=O)Nc2ccc(Cl)cc2)C(c2ccccc2)C1)c1ccc(Cl)cc1 (stereo unspecified)	> 100 µM (inactive)	> 100 µM (inactive)	> 100 µM (inactive)	> 100 µM (inactive)	> 100 µM (inactive)	> 100 µM (inactive)	> 100 µM (inactive)	> 100 µM (inactive)	> 100 µM (inactive)	> 100 µM (inactive)	> 100 µM (inactive)	> 100 µM (inactive)		> 100 µM (inactive)	> 100 µM (inactive)	> 100 µM (inactive)	> 100 µM (inactive)	> 100 µM (inactive)
CC1C(=O)O[C@H]2C1CC[C@@]1(C)[C@H](O)CC[C@@]13C[C@]2(O)OO3 (stereo partly specified)	> 100 µM (inactive)	> 100 µM (inactive)	> 100 µM (inactive)	> 100 µM (inactive)	> 100 µM (inactive)	> 100 µM (inactive)	> 100 µM (inactive)		> 100 µM (inactive)	> 100 µM (inactive)	> 100 µM (inactive)	> 100 µM (inactive)	> 100 µM (inactive)	> 100 µM (inactive)	> 100 µM (inactive)	> 100 µM (inactive)	> 100 µM (inactive)	
CN(C(=O)c1cccs1)C(=S)N1CCN(c2ccccn2)CC1	> 100 µM (inactive)	> 100 µM (inactive)	> 100 µM (inactive)	> 100 µM (inactive)		> 100 µM (inactive)	> 100 µM (inactive)	> 100 µM (inactive)	> 100 µM (inactive)	> 100 µM (inactive)	> 100 µM (inactive)	> 100 µM (inactive)	> 100 µM (inactive)	> 100 µM (inactive)	> 100 µM (inactive)	> 100 µM (inactive)	> 100 µM (inactive)	> 100 µM (inactive)
C/C(=N\NC(=O)CC(=O)Nc1ccc(C)cc1)c1cc2ccccc2oc1=O	> 100 µM (inactive)	> 100 µM (inactive)	> 100 µM (inactive)	> 100 µM (inactive)		> 100 µM (inactive)	> 100 µM (inactive)	> 100 µM (inactive)	> 100 µM (inactive)	> 100 µM (inactive)	> 100 µM (inactive)	> 100 µM (inactive)	> 100 µM (inactive)	> 100 µM (inactive)	> 100 µM (inactive)	> 100 µM (inactive)		20.2 µM (inactive)
